Assay results reported in patent publication US8178506B2, “Oligomeric compounds and compositions for use in modulation of small non-coding RNAs” (Regulus Therapeutics Inc., priority 2003, dated 2012).
In the oligonucleotide strings, read from the 5' end, every base follows the letter of its sugar. An asterisk marks phosphorothioate; unmarked linkages are phosphodiester. Other units and linkages are bracketed, terminal groups are in braces. A string of capitals states the bases alone. e = 2'-O-(2-methoxyethyl) (MOE); [5mC] = 5-methylcytosine; d = 2'-deoxy (DNA)

Tests used:
Assay type in all cases: cell-based, mouse
IL-12 mRNA = IL-12 mRNA in LPS-activated primary murine macrophages; conditions: for IL-12 mRNA expression, % UTC: LPS, average of 3 treatments; for IL-12 mRNA expression, +IFN % UTC: 300 nM oligomeric compound, stimulation with IFN-gamma and LPS, average of 2 experiments
Description: (§1) To investigate the role of miRNAs in the immune response, oligomeric compounds of the present invention targeting miRNAs were tested for their effects upon lipopolysaccharide (LPS)-activated primary murine macrophages. Macrophages participate in the immune response, for example, in the recognition and phagocytosis of microorganisms, including bacteria. Interferon-gamma (IFN-gamma) released by helper T cells is one type of signal required for macrophage activation, and LPS can serve as an additional stimulus. LPS is a component of the gram-negative bacterial cell wall and acts as an agonist for toll-like receptor 4 (TLR4), the primary LPS receptor expressed by macrophages. The proinflammatory cytokines interleukin-12 (IL-12) and interleukin-6 (IL-6) are induced by LPS treatment of macrophages, thus the expression of the mRNAs encoding these cytokines was used to evaluate the response of macrophages to LPS following treatment with oligomeric compounds targeting miRNAs.
(§2) Macrophages were isolated as follows. Female C57B1/6 mice (Charles River Laboratories, Wilmington, Mass.) were injected intraperitoneally with 1 ml 3% thioglycollate broth (Sigma-Aldrich, St. Louis, Mo.), and peritoneal macrophage cells were isolated by peritoneal lavage 4 days later. The cells were plated in 96-well plates at 40,000 cells/well for one hour in serum-free RPMI adjusted to contain 10 mM HEPES (Invitrogen Life Technologies, Carlsbad, Calif.), allowed to adhere, then non-adherent cells were washed away and the media was replaced with RPMI containing 10 mM HEPES, 10% FBS and penicillin/streptomycin (“complete” RPMI; Invitrogen Life Technologies, Carlsbad, Calif.).
(§3) Oligomeric compounds were introduced into the cells using the non-liposomal transfection reagent FuGENE 6 Transfection Reagent (Roche Diagnostics Corp., Indianapolis, Ind.). Oligomeric compound was mixed with FuGENE 6 in 1 mL of serum-free RPMI to achieve a concentration of 10 μL FuGENE per 1000 nM oligomeric compound. The oligomeric compound/FuGENE complex was allowed to form at room temperature for 20 minutes. This mixture was diluted to the desired concentration of oligomeric compound by the addition of the appropriate volume of complete RPMI. The final ratio of FuGENE 6 to oligomeric compound was 1 μL of FuGENE 6 per 100 nM oligomeric compound. A volume of 100 μL of oligomeric compound/FuGENE/RPMI was added to each well of the 96-well plate in which the macrophages were cultured. Each oligomeric compound treatment was repeated in triplicate.
(§4) Following oligomeric compound treatment, cells were stimultated with LPS. Cells were cultured in the presence of the transfection complex for approximately 24 to 28 hours at 37° C. and 5% CO2, after which the medium containing the transfection complex was removed from the cells, and complete RPMI containing 100 ng/mL LPS (Sigma-Aldrich Corp., St. Louis, Mo.) was added to the cells for a period of approximately 24 hours. Control samples included (1) cells receiving no oligomeric compound, stimulated with LPS and (2) cells receiving neither oligomeric compound nor LPS treatment.
(§5) In another embodiment, following oligomeric compound treatment, cells were first activated by IFN-gamma, to amplify the response to LPS. Cells were cultured in the presence of the transfection complex for approximately 24 hours at 37° C. and 5% CO2, at which point the medium containing the transfection complex was removed from the cells, and complete RPMI containing 100 ng/mL recombinant mouse IFN-gamma (R&D Systems, Minneapolis, Minn.) was added to the cells. After the 4 hour treatment with INF-gamma, cells were treated with 100 ng/mL LPS for approximately 24 hours. Control samples included (1) cells receiving no oligomeric compound, stimulated with LPS and (2) cells receiving neither oligomeric compound nor LPS treatment. […]

IL-6 mRNA = IL-6 mRNA in LPS-activated primary murine macrophages; conditions: for IL-6 mRNA expression, % UTC: average of 3 treatments; for IL-6 expression: IFN-gamma-stimulated and unstimulated cells, 75-600 nM
Description: as §1, §2, §3, §4, §5

B16-F10 cells = assay: Cell cycle assay in B16-F10 cells; conditions: 150 nM, 48 hours, relative to untreated control
Description: BJ cells were routinely cultured in MEM high glucose with 2 mM L-glutamine and Earle's BSS adjusted to contain 1.5 g/L sodium bicarbonate and supplemented with 10% fetal bovine serum, 0.1 mM non-essential amino acids and 1.0 mM sodium pyruvate (all media and supplements from Invitrogen Life Technologies, Carlsbad, Calif.). B16-F10 cells were routinely cultured in DMEM high glucose (Invitrogen Life Technologies, Carlsbad, Calif.) supplemented with 10% fetal bovine serum (Invitrogen Life Technologies, Carlsbad, Calif.). T47D cells were cultured in DMEM High glucose media (Invitrogen Life Technologies, Carlsbad, Calif.) supplemented with 10% fetal bovine serum. […] Cells were plated on collagen-coated 24-well plates (Falcon-Primaria #3047, BD Biosciences, Bedford, Mass.) at approximately 50,000 cells per well and allowed to attach to wells overnight.
In further studies, additional cell lines were treated with oligomeric compounds targeted against miRNAs to assess the effects of each oligomeric compound on cell cycling. BJ, B16, T47D, and HeLa cells were cultured and transfected as described above. […] T47Dp53 cells are T47D cells that have been transfected with and selected for maintenance of a plasmid that expresses a wildtype copy of the p53 gene (for example, pCMV-p53; Clontech, Palo Alto, Calif.), using standard laboratory procedures. BJ cells were treated with 200 nM of each oligomeric compound, and T47D, T47Dp53, HeLa, and B16 cells were treated with 150 nM of each oligomeric compound. The human foreskin fibroblast BJ cell line represents a non-cancer cell line, while HeLa, T47D, T47Dp53 cells and the mouse melanoma cell line B16-F10 represent cancerous cell lines. For comparison, oligomeric compounds ISIS 183891 (SEQ ID NO: 847) and ISIS 285717 ([…]; herein incorporated as SEQ ID NO: 857), both targeting the kinesin-like 1/Eg5 mRNA, involved in cell cycling, were used as positive controls. The random-mer ISIS 29848 was used as a negative control. Additionally, the oligomeric compounds ISIS Number 25690 ([…]; herein incorporated as SEQ ID NO: 858) and ISIS Number 25691 ([…]; herein incorporated as SEQ ID NO: 859), targeted to nucleotides 3051-3070 and 3085-3104, respectively, of the mRNA encoding the Drosha RNase III (GenBank Accession NM_013235.2, incorporated herein as SEQ ID NO: 860) were also tested. ISIS Number 25690 and ISIS Number 25691 are 5-10-52′-MOE gapmer compounds, 20 nucleotides in length, with phosphorothioate internucleoside linkages throughout the oligomeric compound. All cytidine residues are 5-methylcytidines. Transfections were performed using the methods described herein. Cells were prepared for flow cytometry 48-hours after oligonucleotide treatment. Results of these studies are shown in Table 35, where data are expressed as percentage of cells in each phase relative to the untreated control cells in that phase.

[1] = normalized to LPS-treated cells without oligomeric compound

| Substance | IL-12 mRNA expression, % UTC (IL-12 mRNA; 75 nM, +IFN) | IL-12 mRNA expression, % UTC (IL-12 mRNA; 75 nM, −IFN) | IL-12 mRNA expression, % UTC (IL-12 mRNA; 150 nM, +IFN) | IL-12 mRNA expression, % UTC (IL-12 mRNA; 150 nM, −IFN) | IL-12 mRNA expression, +IFN % UTC (IL-12 mRNA; [1]) | IL-12 mRNA expression, % UTC (IL-12 mRNA; 300 nM, +IFN) | IL-12 mRNA expression, % UTC (IL-12 mRNA; 300 nM, −IFN) | IL-12 mRNA expression, % UTC (IL-12 mRNA; 600 nM, +IFN) | IL-12 mRNA expression, % UTC (IL-12 mRNA; 600 nM, −IFN) | IL-6 mRNA expression, % UTC (IL-6 mRNA; 75 nM, +IFN) | IL-6 mRNA expression, % UTC (IL-6 mRNA; 75 nM, −IFN) | IL-6 mRNA expression, % UTC (IL-6 mRNA; 150 nM, +IFN) | IL-6 mRNA expression, % UTC (IL-6 mRNA; 150 nM, −IFN) | IL-6 mRNA expression, % UTC (IL-6 mRNA; 300 nM, +IFN) | IL-6 mRNA expression, % UTC (IL-6 mRNA; 300 nM, −IFN) | IL-6 mRNA expression, % UTC (IL-6 mRNA; 600 nM, +IFN) | IL-6 mRNA expression, % UTC (IL-6 mRNA; 600 nM, −IFN) | IL-6 expression (IL-6 mRNA) | also measured |
| --- | --- | --- | --- | --- | --- | --- | --- | --- | --- | --- | --- | --- | --- | --- | --- | --- | --- | --- | --- |
| 229927 (antisense e[5mC]*e[5mC]*eA*e[5mC]*eA*dT*dT*dG*dA*dG*dT*dT*dT*d[5mC]*dT*eT*eT*eA*eA*eG) [compound 229927] | 46 % UTC | 67 % UTC | 35 % UTC | 53 % UTC | 145 % UTC | 16 % UTC | 45 % UTC | 8 % UTC | 46 % UTC | 54 % UTC | 57 % UTC | 39 % UTC | 52 % UTC | 40 % UTC | 44 % UTC | 69 % UTC | 104 % UTC | – | IL-12 mRNA expression, −IFN % UTC (IL-12 mRNA; 300 nM oligomeric compound and LPS, no IFN-gamma pretreatment, single experiment, normalized to LPS-treated cells without oligomeric compound): 92 % UTC |
| 285717 (antisense TCGGTTCTTTCCAAGGCTGA; chemistry not given here) [compound 285717] | – | – | – | – | – | – | – | – | – | – | – | – | – | – | – | – | – | – | % cells in cell cycle phase G1 (B16-F10 cells): 72%; % cells in cell cycle phase G2/M (B16-F10 cells): 220%; % cells in cell cycle phase S (B16-F10 cells): 78%; % cells in cell cycle phase aneuploid (B16-F10 cells): 178%; % cells in cell cycle phase subG1 (B16-F10 cells): 627% |
| 289606 (antisense CCUUCCCUGAAGGUUCCUCC; all 2'-MOE, all C 5-methyl, all phosphorothioate, T or U not given here) [compound 289606] | 59 % UTC | 89 % UTC | 46 % UTC | 99 % UTC | 129 % UTC | 52 % UTC | 80 % UTC | 66 % UTC | 98 % UTC | 78 % UTC | 77 % UTC | 69 % UTC | 68 % UTC | 70 % UTC | 65 % UTC | 59 % UTC | 77 % UTC | – | – |
| AACCCACCGACAGCAATGAATGTT (chemistry not given here) [ISIS 327941, uniform 2′-MOE PS; targets mir-181b] | – | – | – | – | – | – | – | – | – | – | – | – | – | – | – | – | – | increased in a dose-dependent manner | IL-12 mRNA expression, % of the untreated control (IL-12 mRNA; IFN-gamma then LPS, all doses): less than 5% |
| CTTCCAGTCGGGGATGTTTACA (anti-miR; chemistry not fully specified) [ISIS 327921, uniform 2′-MOE PS; targets mir-30d] | – | – | – | – | – | – | – | – | – | – | – | – | – | – | – | – | – | increased in a dose-dependent manner | IL-12 expression, % of the control (IL-12 mRNA; IFN-gamma then LPS, 75 nM): 14%; IL-12 expression, % of the untreated control (IL-12 mRNA; IFN-gamma then LPS, all other doses (150, 300, 600 nM)): less than 10%; IL-12 expression, percentage of untreated control (IL-12 mRNA; LPS alone, 75, 150, 300 and 600 nM): ≥ 53%; IL-12 mRNA expression (IL-12 mRNA; LPS-stimulated primary murine macrophages): inhibited IL-12 mRNA expression in a dose-dependent manner |
